Laboratory results published in PMC10037499, “High-Throughput Screen Reveals the Structure–Activity Relationship of the Antimicrobial Lasso Peptide Ubonodin” (ACS Central Science, 2023).
Where a SMILES comes first, the peptide text is derived from it.

Assays:
B. cenocepacia AU0756 = system: B. cenocepacia AU0756
In short: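 Ubonodin variants were tested by broth microdilution following CLSI guidelines against clinical Burkholderia cenocepacia isolates AU0756 and AU24362.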

E. coli MC1061 = assay: Colony-forming units of E. coli MC1061 pUboABC after IPTG induction; assay type: cell-based; conditions: wild-type uboA induced, no uboD, three biological replicates
Experimental: E. coli MC1061 pUboABC and E. coli MC1061 pUboBC cultures were grown. Aliquots of the cultures were sampled prior to and after induction with 10 μM IPTG and 100 μM IPTG, and 10-fold serial dilutions were plated. Colonies were counted 16 h after incubation. […]
fold serial dilutions were spotted onto LB plates supplemented with 100 μ g/m L ampicillin and 0.2% w/v glucose. Plates were incubated for 16 hours at 37 °C before imaging.
Colony- Forming Units of E. coli MC1061 pUboABC and E. coli MC1061 pUboBC pUboABC and pUboBC were transformed into electrocompetent E. coli MC1061, plated onto LB plates supplemented with 100 μ g/ m L ampicillin and 0.2% w/v glucose, and incubated at 37 °C for 16 hours. Single colonies were inoculated into LB media supplemented with 100 μ g/ m L ampicillin and 0.2% w/v glucose and shaken at 37 °C for 16 hours. These cultures were then sub-cultured to an OD600 of 0.02 into 50 mL of LB media supplemented with 100 μg/mL ampicillin in a 250 mL flask. Ten-fold serial dilutions of the culture were plated onto LB plates supplemented with 100 μ g/ m L ampicillin and 0.2% w/v glucose. […] All plates were incubated at 37 °C for 16 hours, after which the number of colonies was counted. […]
A small quantity of DNA was used to reduce the probability of two plasmids being transformed into the same cell. […]

CC[C@H](C)[C@@H]1NC(=O)[C@H](CO)NC(=O)CNC(=O)[C@H](CC(=O)O)NC(=O)CNC(=O)CNC(=O)CC[C@@H](C(=O)N[C@@H](Cc2ccc(O)cc2)C(=O)N[C@@H](Cc2ccccc2)C(=O)N[C@@H](CC(N)=O)C(=O)N[C@@H](CCCNC(=N)N)C(=O)N2CCC[C@H]2C(=O)N[C@@H](CCSC)C(=O)N[C@@H](Cc2c[nH]cn2)C(=O)N[C@H](C(=O)N[C@@H](Cc2c[nH]cn2)C(=O)N[C@@H](CC(=O)O)C(=O)N[C@@H](Cc2c[nH]c3ccccc23)C(=O)N[C@@H](CCC(N)=O)C(=O)N[C@H](C(=O)N[C@@H](CCSC)C(=O)N[C@@H](CC(=O)O)C(=O)N[C@@H](CO)C(=O)NCC(=O)N[C@@H](Cc2ccc(O)cc2)C(=O)N[C@@H](Cc2ccc(O)cc2)C(=O)NCC(=O)O)[C@@H](C)CC)[C@@H](C)CC)NC(=O)[C@H](C)NC1=O [WT, ubonodin] (HELM PEPTIDE1{G.G.D.G.S.I.A.E.Y.F.N.R.P.M.H.I.H.D.W.Q.I.M.D.S.G.Y.Y.G}$PEPTIDE1,PEPTIDE1,1:R1-8:R3$$$V2.0; C-terminus assumed)
B. cenocepacia AU0756 MIC (B. cenocepacia AU0756): 0.25 to 0.5 µM | Reduction in viable cell concentration (CFU per mL) after IPTG induction (E. coli MC1061): 3 log
